This is an account of results in publication PMC7762174 (Viruses, 2020).

Counter-ions that a name gives are not always drawn. Like-named read-outs stand apart in the source and are kept apart here. Some results are limits rather than exact numbers.

In data set [1] the test system is HIV-1_91US005. To be noted: HIV-1, human PBMC, p24 ELISA; 95% CI in brackets.
The subject of data set [2] is HIV-1_91US005. The note with it: HIV-1, human PBMC, RT assay, 7 days; 95% CI in brackets.
Data set [3] concerns human PBMCs. Nature of the data set: Cytotoxicity in PBMC (MTS).
The test system of data set [4] is SARS-CoV-2. Nature of the data set: microbe, parasite or virus in culture. It counts as cell-based.
The nature of data set [5]: in vitro. To be noted: African green monkey.
The next data set deals with HCMV AD169-GFP. Kind of data set: microbe, parasite or virus in culture. It counts as cell-based, human cytomegalovirus. The note with it: Human betaherpesvirus 5, AD169, 168 h.
Data set [6] has as its system primary human foreskin fibroblasts (HFFs). On the set-up: method as in ref 28 = [28]. To be noted: HFF; reported previously; cited from earlier work.
Data set [7] relates to SARS-CoV-2. Kind of data set: microbe, parasite or virus in culture. The format is cell-based. This is another data set of the same source.
Data set [8] deals with SARS-CoV-2. Kind of data set: microbe, parasite or virus in culture. To be noted: for reduction in viral yield: Vero 76, 3 days. The format is cell-based.
The nature of data set [9]: in vitro. To be noted: human. It counts as cell-based.
For the next data set, the system named is Vero cells. The note with it: African green monkey.
Data set [10] is described as follows: in vitro. The format is cell-based. The note with it: African green monkey.
The nature of data set [11]: in vitro. To be noted: African green monkey. This is another data set of the same source.
Data set [12] concerns SARS-CoV-2. It counts as cell-based.
Data set [13] concerns the target T1, N-terminally truncated recombinant hDHODH enzyme (Homo sapiens, UniProt Q02127).
T1 construct: using an N-terminally truncated recombinant hDHODH enzyme as described
Kind of data set: In vitro inhibition of human DHODH. It counts as biochemical.

Data set [14] in a line: Neutral Red assay (NRA) cytotoxicity. To be noted: African green monkey.
Data set [15] deals with HIV-1_91US005. Kind of data set: microbe, parasite or virus in culture. To be noted: Human immunodeficiency virus 1, PBMC.
A short description of data set [16]: in vitro. To be noted: human.
The test system of the next data set is inflammation in the lung. Also noted: method as in ref 57 = [57]. The note with it: mouse model of systemic lupus erythematosus; cited from earlier work.
Data set [17] deals with primary human foreskin fibroblasts (HFFs).
The nature of data set [18]: in vitro. To be noted: human. The source holds these as a separate data set.
Data set [19] is described as follows: Cytotoxicity in Huh7 replicon cells (CytoTox-1 cell proliferation assay). The note with it: human.
For data set [20], the system named is Huh7 human hepatoma cell line. Described as above. The note with it: highest concentration (30 µM), Huh7.
The test system of data set [21] is HIV-1_91US005. Kind of data set: microbe, parasite or virus in culture. The note with it: Human immunodeficiency virus 1, PBMC, 168 h.
Data set [22] concerns human PBMCs. To be noted: 7 days, 100 µM.
Data set [23] has as its system HCV subgenomic replicon of genotype 1b. Nature of the data set: HCV subgenomic replicon Luc reporter assay in Huh7. It counts as cell-based. To be noted: Hepatitis C virus, Huh-7, 24 h. (In general: Replicon systems follow genome replication, usually without infectious particles.)
In the next data set the test system is MPO in colonic tissue. Also noted: method as in ref 57 = [57]. To be noted: murine TNBS-induced colitis model; cited from earlier work.
Where [24] appears, read: Severe acute respiratory syndrome coronavirus 2, RT-qPCR, Vero cells, read-out: Anti-SARS-CoV-2 drug efficacy on Vero cells: EC50.
[25] abbreviates: Severe acute respiratory syndrome coronavirus 2, Caco-2.

T1 sequence (Q02127 29-395 limits assumed): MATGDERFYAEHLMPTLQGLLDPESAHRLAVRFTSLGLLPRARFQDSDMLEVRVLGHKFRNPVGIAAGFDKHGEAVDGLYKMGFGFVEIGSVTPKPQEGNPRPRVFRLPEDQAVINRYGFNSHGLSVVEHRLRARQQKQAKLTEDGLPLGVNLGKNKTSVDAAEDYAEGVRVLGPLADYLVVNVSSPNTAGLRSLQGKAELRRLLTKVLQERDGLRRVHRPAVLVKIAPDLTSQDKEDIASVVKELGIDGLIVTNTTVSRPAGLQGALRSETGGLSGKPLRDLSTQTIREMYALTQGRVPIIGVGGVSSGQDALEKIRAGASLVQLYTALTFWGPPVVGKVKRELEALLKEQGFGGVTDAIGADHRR

With `Cc1cn([C@H]2C[C@H](N=[N+]=[N-])[C@@H](CO)O2)c(=O)[nH]c1=O` [AZT, azidothymidine/zidovudine], the EC50 was found to be 0.00027 µM with HIV-1_91US005 [1] and 0.00038 µM with HIV-1_91US005 [2]. Moreover, in the data set with human PBMCs [3], the CC50 was more than 1 µM.
Take `CCN(CC)CCCC(C)Nc1ccnc2cc(Cl)ccc12` (stereo not drawn) [CQ, chloroquine, reference compound]: in the data set with SARS-CoV-2 [4] (setting [24]), the EC50 stood at 2.7 ± 0.9 µM. In addition, the CC50 in the data set “in vitro [5]” is more than 20 µM.
In the data set on HCMV AD169-GFP, `Nc1nc(O)c2ncn(COC(CO)CO)c2n1` [GCV, ganciclovir, reference compound] came in with an EC50 of 1.69 ± 0.8 µM. Also, in [6], the CC50 was more than 15 µM.
As for `COc1cccc(-c2ccc(NC(=O)C3=C(C(=O)O)CCC3)c(F)c2)c1` [IMU-838, calcium salt of vidofludimus], in the data set on SARS-CoV-2 [7] (30 µM, CaCo-2, 72 h p.i.), the “reduction of viral plaques” value is recorded as ~ 1.8 log unit. The EC50 was 7.5 to 15 µM in the data set on SARS-CoV-2 [7] (setting [25]); 10 ± 9 µM in the data set on SARS-CoV-2 [4] (Severe acute respiratory syndrome coronavirus 2, Vero 76, 72 h, read-out: EC50, replicate 3 RT-qPCR); 6.8 µM in the data set on SARS-CoV-2 [4] (Severe acute respiratory syndrome coronavirus 2, Vero, 48 h, read-out: EC50, replicate 1 RT-qPCR); 6 µM in the data set with SARS-CoV-2 [4] (Severe acute respiratory syndrome coronavirus 2, Vero, 72 h, read-out: EC50, replicate 2 RT-qPCR); 7.6 ± 5.8 µM in the data set on SARS-CoV-2 [4] (Severe acute respiratory syndrome coronavirus 2, Vero, read-out: Mean EC50 of replicates 1-3). Also, the EC90 in the data set with SARS-CoV-2 [7] (setting [25]) was 15 to 30 µM; in the data set on SARS-CoV-2 [8] (Severe acute respiratory syndrome coronavirus 2, Vero 76, 72 h) it was 6.2 ± 1.9 µM. Besides, the “reduction in viral yield” value in the data set on SARS-CoV-2 [8] (drug alone at 10 µM) is recorded as ~ 1.7 fold log unit. Also, the CC50 in “in vitro [9]” was more than 60 µM; with Vero cells it was more than 100 µM; in “in vitro [11]” (CC50), 88.1 ± 3.7 µM. Besides, the CC90 is more than 60 µM in the data set “in vitro [9]” and more than 100 µM in the data set “in vitro [10]”. The viability at 3 days, 100 µM in the data set “in vitro [11]” was 95%. Also, the “inhibition of viral RNA production (mAb-dsRNA)” value in the data set on SARS-CoV-2 [12] is listed as “concentration-dependent IMU-838-mediated inhibition”. Besides, the “inhibition of viral spike protein production (mAb-S)” value in the data set with SARS-CoV-2 [12] was “concentration-dependent IMU-838-mediated inhibition”.
As for `COC(=O)c1c(-c2c(F)cccc2Cl)noc1-c1cnn(-c2cccc(Cl)c2)c1C(F)(F)F` [IMU-CO3], the IC50 in [13] was found to be 0.041 µM. The compound further gave a CC50 at 3 days in “in vitro [11]” (CC50 values on Vero cells) of more than 100 µM. The EC50 with SARS-CoV-2 [4] (setting [24]) turned out to be 15.5 ± 4.6 µM.
In the case of `CCC(CC)COC(=O)[C@H](C)N[P@](=O)(OC[C@H]1O[C@@](C#N)(c2ccc3c(N)ncnn23)[C@H](O)[C@@H]1O)Oc1ccccc1` [RDV, remdesivir], the CC50 in [14] is more than 100 µM; in “in vitro [5]”, more than 20 µM. The entries for the “reduction in viral yield” value with SARS-CoV-2 [8] (drug alone at 5 µM) and in the data set on SARS-CoV-2 [8] (drug alone at 10 µM) were ~ 3.8 fold log unit and more than 4.0 fold log unit, respectively. Besides, the EC50 in the data set on SARS-CoV-2 [4] (setting [24]) stood at 1.7 ± 1 µM.
Turning to `C/C(O)=C(\C#N)C(=O)Nc1ccc(C(F)(F)F)cc1` [TFNM, teriflunomide], the EC90 with SARS-CoV-2 [8] (Severe acute respiratory syndrome coronavirus 2, 72 h, Vero 76, USA_WA1/2020, MOI 0.002, VYR, 3 days p.i., read-out: EC90) amounted to 14 µM.
For `COc1cccc(-c2ccc(NC(=O)C3=C(C(=O)O)CCC3)c(F)c2)c1` [Vido, vidofludimus], the EC50 in the data set on HIV-1_91US005 [15] was 1.3 µM; in the data set with HCMV AD169-GFP, 7.4 ± 0.1 µM; with HIV-1_91US005 [21] it was 2.1 µM; in data set [23] it was 5.9 µM. Further, the CC50 at 7 days in “in vitro [16]” is more than 100 µM. Also, in the data set on inflammation in the lung, the “inflammation in the lung” value is on record as “decreased inflammation in the lung”. The cytotoxicity entry in data set [17] is recorded as “absence of detectable cytotoxicity”. For the same compound, the CC50 in the data set “in vitro [18]” was more than 100 µM. The compound also came in with a CC50 at 24 h in [19] of more than 30 µM. Besides, the figures for the “reduction in cell viability” value (in data set [20]; with human PBMCs [22]) were 34% and 46.8%, respectively. In addition, the “levels of MPO in colonic tissue” value with MPO in colonic tissue is given as “reduced the levels of MPO in colonic tissue”.

One may read the EC50 as the concentration at which the effect is half-maximal. As usually defined, the EC90 is the concentration at which the effect reaches the 90% level. By viability is commonly meant the share of living cells, or the viability signal relative to a control. What is called IC50 is the midpoint of a concentration-inhibition curve.
